Experimental data taken from patent publication EP0353777A2, “New 2,5-disubstituted tetrahydrofuran derivatives” (J. URIACH & CIA. S.A., priority 1988, dated 1990).
Where two headings read alike, the source gives them in different places.

Assays:
[1] = test system: platelet aggregation induced by PAF; test: Test 1: Inhibition of platelet aggregation induced by PAF; type: cell-based; details: rabbit platelet rich plasma, aggregation induced by PAF (C₁₈) 16 nM final, Born nephelometric technique, read-out: IC₅₀
Experimental: Test 1: Inhibition of platelet aggregation induced by PAF.
The blood is obtained by cardiac puncture of male New Zealand albino rabbits (between 2 and 2.5 Kg of weight) and coagulatlon is prevented by adding 1 part of 3.16% sodium citrate dihydrate in 9 parts of blood. The platelet rich plasma (PRP) is prepared by blood centrifugation at 250xg for 10 min. at 4°C and it is diluted with platelet poor plasma (PPP) obtained by additional centrifugation at 3000xg for 10 min. The amount of platelets is adjusted to […]. The platelet aggregation induced by PAF (C₁₈, prepared in our laboratory) (16 nM, final) is determined by the Born nephelometric technique (J. Physiol., 1962 162, 67) using a aggregometer Chrono-log 500. The activities of the inhibitors are expressed as IC₅₀, that is to say the concentration of the drug needed to inhibit the platelet aggregation in a 50%.

[2] = test system: hypotension induced by PAF; test: Test 2: Inhibition of the hypotensive effect induced by PAF in normotense rats; type: in vivo; details: anesthetized male Sprage Dawley rats; compounds given through the femoral vein 3 min. before PAF (0.5 mcg/Kg, i.v.); average arterial pressure
Experimental: Test 2 - Inhibition of the hypotensive effect induced by PAF in normotense rats. Male Sprage Dawley rats, of 180-220 g of weight, anesthetized with sodium pentobarbital (50 mg/Kg, i.p. 1 mL/100 g) have been used. In order to measure the average arterial pressure, a polyethylene catheter is introduced into the carotid artery. The arterial pressure is recorded with the help of a transducer connected with a […] Beckman polygraph. […]

Structure (SMILES)	IC50 ([1]; Oryctolagus cuniculus)	CI₅₀ [2]	IC50 [1]
CCCCCCCCCCCCCCCC1CCC(COC(=O)CCCCC[n+]2ccsc2)O1 (mixture of isomers) [Compound 12, (±)-cis,trans-3-[6-[(5-pentadecyl-2-tetrahydrofuranyl)methoxy]-6-oxohexyl] tiazolium 4-methylbenzenesulfonate]	3100 nM		
CCCCCCCCCCCCCCCCCC1CCC(COC(=O)N(Cc2cccc[n+]2CC)C(=O)OCC)O1 (mixture of isomers) [Compound 7, (±)-cis,trans-2-[N-ethoxycarbonyl-N-[((5-heptadecyl-2-tetrahydrofuranyl)methoxy)carbonyl]aminomethyl]-1-ethylpyridinium iodide]	130 nM	0,34 mg/Kg,i.v.	
CCCCCCCCCCCCCCCCC[C@@H]1CC[C@H](COC(=O)N(Cc2cccc[n+]2CC)C(C)=O)O1.[I-] (racemic) [Compound 3, (±)-cis,trans-2-[N-acetyl-N-[((5-heptadecyl-2-tetrahydrofuranyl)methoxy)carbonyl]aminomethyl]-1-ethylpiridinium iodide]		0,15 mg/Kg,i.v.	71 nM
CCCCCCCCCCCCCCCC1CCC(COCCCCCC[n+]2ccsc2)O1 (mixture of isomers) [Compound 13, (±)-cis,trans-3-[6-[(5-pentadecyl-2-tetrahydrofuranyl)methoxy]hexyl]tiazolium 4-methylbenzenesulfonate]	1300 nM		
CCCCCCCCCCCCCCCCCC1CCC(COC(=O)N(Cc2cccc[n+]2C)C(C)=O)O1 (mixture of isomers) [Compound 5, (±)-cis,trans-2-[N-acetyl-N-[((5-heptadecyl-2-tetrahydrofuranyl)methoxy)carbonyl]aminomethyl]-1-methylpiridinium iodide]	1100 nM	0,8 mg/Kg,i.v.	
CCCCCCCCCCCCCCCCCNC(=O)OCC1CCC(COC(=O)N(Cc2cccc[n+]2CC)C(C)=O)O1 (mixture of isomers) [Compound 16, (±)-cis,trans-2-[N-acetyl-N-[((5-(((N-heptadecylcarbamoyl)oxy)methyl)-2-tetrahydrofuranyl)methoxy)carbonyl]aminomethyl] -1-ethylpiridinium iodide]	40 nM	0,064 mg/Kg,i.v.	
CCCCCCCCCCCCCCCCOCC1CCC(COC(=O)N(Cc2cccc[n+]2CC)C(C)=O)O1 (mixture of isomers) [Compound 25, (±)-cis,trans-2-[N-acetyl-N-[((5-((hexadecyloxy)methyl)-2-tetrahydrofuranyl)methoxy)carbonyl]aminomethyl]-1-ethylpyridinium iodide]	74 nM	0,036 mg/Kg,i.v.	
CCCCCCCCCCCCCCCCC[C@@H]1CC[C@H](COC(=O)N(Cc2cccc[n+]2CC)C(C)=O)O1.[Cl-] (racemic) [Compound 4, (±)-cis,trans-2-[N-acetyl-N-[((5-heptadecyl-2-tetrahydrofuranyl)methoxy)carbonyl]aminomethyl]-1-ethylpiridinium chloride]		0,19 mg/Kg,i.v.	190 nM
CCCCCCCCCCCCCCCNC(=O)OCC1CCC(COC(=O)N(Cc2cccc[n+]2CC)C(C)=O)O1 (mixture of isomers) [Compound 19, (±)-cis,trans-2-[N-acetyl-N-[((5-(((N-pentadecylcarbamoyl)oxy)methyl)-2-tetrahydrofuranyl)methoxy)carbonyl]aminomethyl] -1-ethylpiridinium iodide]	54 nM	0,098 mg/Kg,i.v.	
CCCCCCCCCCCCCCCC1CCC(COC(=O)N(Cc2cccc[n+]2CC)C(C)=O)O1 (mixture of isomers) [Compound 11, (±)-cis,trans-2-[N-acetyl-N-[((5-pentadecyl-2-tetrahydrofuranyl)methoxy)carbonyl]aminomethyl]-1-ethylpyridinium iodide]	95 nM	0,15 mg/Kg,i.v.	
